Assay results taken from US9003693B2, “Control of zebra mussels in closed service water systems” (ASI Group Ltd., priority 2013, dated 2015).
Like-named read-outs stand apart in the source and are kept apart here. Marks after values point to notes of the source that are not given here.

Legend:
[1] = test system: naturally occurring veliger larvae; experiment: Larval settlement on PVC settling plates in flow-through tanks; type: in vivo, zebra mussel (Dreissena polymorpha); conditions: 52 day trial period; for Larval (veliger) settlement: 30 mg/l K+
Experimental: (§1) Mortality studies using flow through contact chambers were performed with young adult (<1.5 cm) zebra mussels and naturally occurring veliger populations at a small tributary of a canal located in southern Ontario, Canada. Water temperatures ranged between 20 and 25° C. throughout the trial.
In addition to adult trials, six PVC settling plates were installed in one replicate tank at each test concentration as well as the control. The presence of naturally occurring veliger larvae in the water source provided the opportunity of determining settling rates at each test concentration.
(§2) A concentrated potassium solution was metered into each replicate test line prior to its entering the test tanks from a pre-mixed batch tank. Potassium source was commercial grade potash which was 60% potassium by weight. The potassium concentration was controlled through differential metering rates. Flow-through trials were carried out for 52 days at which point final mortality in adults was recorded.

[2] = test system: young adult (<1.5 cm) zebra mussels; experiment: Flow-through contact chamber mortality study, adult mussels; type: in vivo; conditions: for Final mortality of adult mussels: end of the 52 day trial
Experimental: as §1
Adult zebra mussels were exposed to three concentrations of K^+ (40 mg/l, 30 mg/l, and 20 mg/l) as well as a control chamber. Each concentration as well as the control was replicated three times. The nature of the design allowed for simultaneous trials with adults and veligers. Sixty adult mussels (six groups of ten) were exposed in each replicate test concentration and control tank. Mussels were contained in PVC mesh baskets which allowed free flow of water while maintaining the mussels in discrete groups of ten.
as §2

adult zebra mussels = test system: adult zebra mussels
Experimental: Laboratory research was carried out to investigate potash for mussel control by itself or in combination with oxidizing agents such as chlorine or hydrogen peroxide.
Experiments were carried out with adult zebra mussels using potassium chloride (KCl) alone, as well as chloramine, hydrogen peroxide and combinations thereof to determine the estimated time to 95% mortality. Experimentation was carried out at 100 mg/L K^+ and test temperatures ranged from 2 to 30° C.

Daphnia magna = experiment: KCl toxicity test on non-target species (EPS protocol); type: in vivo; conditions: acute test
Experimental: (§3) Studies were performed to investigate the environmental effects on non-target species of treatment with concentrations of potassium effective for controlling zebra mussels. As set out below, potassium when discharged at concentrations of 100 mg/l or less is an environmentally benign method of zebra mussel control. This is an important advantage over other methods of controlling zebra mussels such as by the use of chlorine or other oxidizing agents which can result in significant non-target species toxicity.
(§4) A stock solution at 1000 mg/l KCl was used to set all tests. Dilutions were made from these stocks. Test methods were as dictated by EPS protocols for each test organism.

Rainbow trout = experiment: as above; type: in vivo; conditions: acute test
Experimental: as §3, §4

Fathead minnow = experiment: as above; type: in vivo
Experimental: as §3, §4

Ceriodaphnia dubia = experiment: as above; type: in vivo
Experimental: as §3, §4

SMILES: [K+] [potassium cation]
- Larval (veliger) settlement [1]: No larval settlement was detected
- Larval (veliger) settlement ([1]; listed as Potassium): effective at preventing settlement of veligers
- Larval settlement ([1]; 40 mg/l K+): No larval settlement was detected
- Final mortality of adult mussels ([2]; 20 mg/l K+, water 20-25 °C): 73%
- Final mortality of adult mussels ([2]; 30 mg/l K+, water 20-25 °C): 91%
- Mortality of a target population ([2]; 40 mg/L potassium, within two weeks, water temperatures above 15 °C): up to 100%
- Time to complete mortality of adult mussels ([2]; 40 mg/l K+, flow-through, water 20-25 °C): ≤ 25 days
- Mortality of zebra mussels over time (in words) ([2]; 40 mg/l potassium): significant mortality within two weeks and complete mortality in this trial in just over three weeks
- Zebra mussel mortality (adult zebra mussels; 100 mg/L potassium, in 48 hours, water temperatures above 15 °C): 100%
- Estimated time (hours) to 95% mortality (adult zebra mussels; KCl at 100 mg/L K+, 14-26 °C): 22 h

SMILES: NCl [chloramine]
- Estimated time (hours) to 95% mortality (adult zebra mussels; chloramine 0.5 mg/L, 10-12 °C, extrapolated value): 480* hours
- Estimated time (hours) to 95% mortality (adult zebra mussels; chloramine 0.5 mg/L, 14-26 °C, extrapolated value): 97* hours
- Estimated time (hours) to 95% mortality (adult zebra mussels; chloramine 1.0 mg/L, 10-12 °C): 258 h
- Estimated time (hours) to 95% mortality (adult zebra mussels; chloramine 1.0 mg/L, 13-17 °C): 209 h
- Estimated time (hours) to 95% mortality (adult zebra mussels; chloramine 1.0 mg/L, 14-26 °C): 60 h
- Estimated time (hours) to 95% mortality (adult zebra mussels; chloramine 2.0 mg/L, 13-17 °C): 87 h

SMILES: OO [H2O2, hydrogen peroxide]
- Estimated time (hours) to 95% mortality (adult zebra mussels; H2O2 5 mg/L, 12-14 °C, extrapolated value): 1714* hours
- Estimated time (hours) to 95% mortality (adult zebra mussels; H2O2 5 mg/L, 20-21 °C, extrapolated value): 455* hours
- Estimated time (hours) to 95% mortality (adult zebra mussels; H2O2 5 mg/L, 22-24 °C, extrapolated value): 294* hours
- Estimated time (hours) to 95% mortality (adult zebra mussels; H2O2 10 mg/L, 12-14 °C): 227 h
- Estimated time (hours) to 95% mortality (adult zebra mussels; H2O2 10 mg/L, 20-21 °C): 36 h
- Estimated time (hours) to 95% mortality (adult zebra mussels; H2O2 10 mg/L, 22-24 °C): 21 h

SMILES: [Cl-].[K+] [KCl, potassium chloride]
- LC50 (Daphnia magna): 188.8 µg/mL
- LC50 (Rainbow trout): 1248.4 µg/mL
- IC25 (Fathead minnow): 736.2 µg/mL
- IC50 (Fathead minnow): 892.5 µg/mL
- LC50 (Fathead minnow): 512.7 µg/mL
- GROWTH/REPRODUCTIVE DATA LOEC (Fathead minnow; NED = no effect detected): NED
- GROWTH/REPRODUCTIVE DATA NOEC (Fathead minnow; NED = no effect detected): NED
- GROWTH/REPRODUCTIVE DATA TEC (Fathead minnow; NED = no effect detected): NED
- SURVIVAL DATA LOEC (Fathead minnow; chronic test): 603 mg/L
- SURVIVAL DATA NOEC (Fathead minnow; chronic test): 302 mg/L
- SURVIVAL DATA TEC (threshold effect concentration) (Fathead minnow; chronic test): 426.7 mg/L
- IC25 (Ceriodaphnia dubia): 189.3 µg/mL
- IC50 (Ceriodaphnia dubia): 256.8 µg/mL
- LC50 (Ceriodaphnia dubia): 219.6 µg/mL
- GROWTH/REPRODUCTIVE DATA LOEC (Ceriodaphnia dubia; NED = no effect detected): NED
- GROWTH/REPRODUCTIVE DATA NOEC (Ceriodaphnia dubia; NED = no effect detected): NED
- GROWTH/REPRODUCTIVE DATA TEC (Ceriodaphnia dubia; NED = no effect detected): NED
- SURVIVAL DATA LOEC (Ceriodaphnia dubia; chronic test): 385 mg/L
- SURVIVAL DATA NOEC (Ceriodaphnia dubia; chronic test): 193 mg/L
- SURVIVAL DATA TEC (threshold effect concentration) (Ceriodaphnia dubia; chronic test): 272.6 mg/L
- Estimated time (hours) to 95% mortality (adult zebra mussels; KCl at 100 mg/L K+, 10-12 °C, extrapolated value): 283* hours
- Estimated time (hours) to 95% mortality (adult zebra mussels; KCl at 100 mg/L K+, 12-14 °C): 165 h
- Estimated time (hours) to 95% mortality (adult zebra mussels; KCl at 100 mg/L K+, 13-17 °C): 113 h
- Estimated time (hours) to 95% mortality (adult zebra mussels; KCl at 100 mg/L K+, 14-26 °C): 22 h
- Estimated time (hours) to 95% mortality (adult zebra mussels; KCl at 100 mg/L K+, 20-21 °C): 56 h
- Estimated time (hours) to 95% mortality (adult zebra mussels; KCl at 100 mg/L K+, 22-24 °C, extrapolated value): 33* hours
